Laboratory results as given in PubChem BioAssay (NCI).
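96-well plates; 48 h exposure; 5 concentrations. Endpoints by linear interpolation between flanking doses. Not reached: highest tested concentration assigned. GI50 is the concentration that inhibits growth by half. At the TGI there is no net growth.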

Legend:
Assay in all cases: NCI-60 cell line screen, 48 h; in the data active = GI50 below about 0.43 µM; inactive = the rest
MALME-3M melanoma = tested on: MALME-3M melanoma
ACHN renal = tested on: ACHN renal
SF-539 CNS = tested on: SF-539 CNS
MOLT-4 leukemia = tested on: MOLT-4 leukemia
HCC-2998 colon = tested on: HCC-2998 colon
SK-OV-3 ovarian = tested on: SK-OV-3 ovarian
SK-MEL-28 melanoma = tested on: SK-MEL-28 melanoma
MDA-MB-435 = tested on: MDA-MB-435
T-47D breast = tested on: T-47D breast
SNB-75 CNS = tested on: SNB-75 CNS

Cc1ccc(NC(=O)C2C(=O)C(=O)N(c3ccc(C)cc3)C2=O)cc1 (stereo not given)
> 100 µM: TGI (MALME-3M melanoma) | TGI (ACHN renal) | TGI (SF-539 CNS) | TGI (MOLT-4 leukemia) | TGI (HCC-2998 colon)

O=C(O)c1ccc([N+](=O)[O-])c(P(=O)(O)O)c1
> 100 µM: TGI (SK-OV-3 ovarian) | TGI (SK-MEL-28 melanoma) | TGI (MDA-MB-435) | TGI (ACHN renal) | TGI (SF-539 CNS) | TGI (MOLT-4 leukemia) | TGI (T-47D breast)

O=[N+]([O-])c1ccc(Oc2cccnc2)c([N+](=O)[O-])c1
9.73 µM: TGI (SK-OV-3 ovarian)
13 µM: TGI (ACHN renal)
38.4 µM: TGI (SNB-75 CNS)
12.1 µM: TGI (SF-539 CNS)
17.6 µM: TGI (MALME-3M melanoma)
32.2 µM: TGI (MOLT-4 leukemia)
30.1 µM: TGI (T-47D breast)
23.9 µM: TGI (SK-MEL-28 melanoma)
inactive: GI50 (MALME-3M melanoma) 2.83 µM | GI50 (SNB-75 CNS) 2.76 µM | GI50 (SK-OV-3 ovarian) 3.28 µM | GI50 (SK-MEL-28 melanoma) 9.49 µM | GI50 (ACHN renal) 3.34 µM | GI50 (SF-539 CNS) 3.21 µM | GI50 (MOLT-4 leukemia) 6.08 µM | GI50 (HCC-2998 colon) 6.53 µM | GI50 (T-47D breast) 7.3 µM
41.7 µM: TGI (HCC-2998 colon)

NC(Cc1cc(Br)c(O)c(Br)c1)C(=O)O (stereo not given)
> 100 µM: TGI (MALME-3M melanoma) | TGI (SNB-75 CNS) | TGI (SK-OV-3 ovarian) | TGI (SK-MEL-28 melanoma) | TGI (MDA-MB-435) | TGI (ACHN renal) | TGI (SF-539 CNS) | TGI (MOLT-4 leukemia) | TGI (T-47D breast)

S=C1CNC(=S)CN1
> 100 µM: TGI (MALME-3M melanoma) | TGI (SNB-75 CNS) | TGI (SK-OV-3 ovarian) | TGI (SK-MEL-28 melanoma) | TGI (ACHN renal) | TGI (SF-539 CNS) | TGI (MOLT-4 leukemia) | TGI (HCC-2998 colon)

CCCCN(CCCC)c1cc(C(=O)CCCCCN)c2ccccc2n1
4.16 µM: TGI (MALME-3M melanoma)
3.14 µM: TGI (ACHN renal)
3.16 µM: TGI (SK-OV-3 ovarian)
inactive: GI50 (MALME-3M melanoma) 2.16 µM | GI50 (SNB-75 CNS) 1.71 µM | GI50 (SK-OV-3 ovarian) 1.76 µM | GI50 (SK-MEL-28 melanoma) 1.91 µM | GI50 (ACHN renal) 1.76 µM | GI50 (SF-539 CNS) 1.95 µM | GI50 (MOLT-4 leukemia) 2.54 µM | GI50 (HCC-2998 colon) 1.76 µM
3.41 µM: TGI (SF-539 CNS)
3.21 µM: TGI (SNB-75 CNS) | TGI (HCC-2998 colon)
5.47 µM: TGI (MOLT-4 leukemia)
3.37 µM: TGI (SK-MEL-28 melanoma)

CCOC(=O)/C(=C/c1cc(OC)ccc1OC)CC(=O)O
> 100 µM: TGI (SNB-75 CNS) | TGI (SK-OV-3 ovarian) | TGI (SK-MEL-28 melanoma) | TGI (ACHN renal) | TGI (SF-539 CNS)
> 31.6 µM: TGI (MALME-3M melanoma) | TGI (MOLT-4 leukemia) | TGI (HCC-2998 colon)

C=CCOC1=C2CC[C@H](O)[C@@]2(C)CCC1=O
> 100 µM: TGI (MALME-3M melanoma) | TGI (SNB-75 CNS) | TGI (SK-OV-3 ovarian) | TGI (SK-MEL-28 melanoma) | TGI (ACHN renal) | TGI (SF-539 CNS) | TGI (MOLT-4 leukemia) | TGI (HCC-2998 colon)

Nc1ccn(C2OC(CO[P+](=O)OC3C(CO[P+](=O)OC4C(CO[P+](=O)OC5C(CO[P+](=O)OC6C(CO[P+](=O)OC7C(CO[P+](=O)OC8C(CO[P+](=O)OC9C(CO[P+](=O)OC%10C(CO[P+](=O)OC%11C(CO)OC(n%12ccc(N)nc%12=O)C%11(F)F)OC(n%11ccc(N)nc%11=O)C%10(F)F)OC(n%10ccc(N)nc%10=O)C9(F)F)OC(n9ccc(N)nc9=O)C8(F)F)OC(n8ccc(N)nc8=O)C7(F)F)OC(n7ccc(N)nc7=O)C6(F)F)OC(n6ccc(N)nc6=O)C5(F)F)OC(n5ccc(N)nc5=O)C4(F)F)OC(n4ccc(N)nc4=O)C3(F)F)C(O)C2(F)F)c(=O)n1 (stereo not given)
> 100 µM: TGI (MALME-3M melanoma) | TGI (SK-OV-3 ovarian) | TGI (SK-MEL-28 melanoma) | TGI (MDA-MB-435) | TGI (HCC-2998 colon) | TGI (T-47D breast)
inactive: GI50 (MALME-3M melanoma) 50.9 µM | GI50 (SK-MEL-28 melanoma) > 100 µM
active: GI50 (SK-OV-3 ovarian) 0.255 µM | GI50 (HCC-2998 colon) 0.339 µM

COc1ccc(S(=O)(=O)Nc2cc(/C=C\c3cc(OC)c(OC)c(OC)c3)cc(OC)c2OC)cc1OC
inactive: GI50 (SK-OV-3 ovarian) 11.4 µM | GI50 (SK-MEL-28 melanoma) 3.27 µM | GI50 (ACHN renal) 0.928 µM | GI50 (SF-539 CNS) 0.518 µM | GI50 (MOLT-4 leukemia) 0.702 µM | GI50 (HCC-2998 colon) 1.83 µM | GI50 (T-47D breast) 27.2 µM
active: GI50 (SNB-75 CNS) 0.404 µM
28.6 µM: TGI (SF-539 CNS)
61.3 µM: TGI (SK-MEL-28 melanoma)
> 100 µM: TGI (SNB-75 CNS) | TGI (SK-OV-3 ovarian) | TGI (ACHN renal) | TGI (MOLT-4 leukemia) | TGI (HCC-2998 colon) | TGI (T-47D breast)

CCCCCCCCCCCCCCCCc1c(C(=O)OC)[nH]c(=S)[nH]c1=O
> 50 µM: TGI (MALME-3M melanoma) | TGI (SNB-75 CNS) | TGI (SK-OV-3 ovarian) | TGI (SK-MEL-28 melanoma) | TGI (ACHN renal) | TGI (SF-539 CNS) | TGI (MOLT-4 leukemia) | TGI (HCC-2998 colon)

NC(=O)c1ncn(C2OC(CO)C(O)C2O)n1 (stereo not given)
inactive: GI50 (MALME-3M melanoma) > 100 µM | GI50 (SK-OV-3 ovarian) > 100 µM | GI50 (SK-MEL-28 melanoma) > 100 µM | GI50 (MDA-MB-435) > 100 µM | GI50 (ACHN renal) 59.8 µM | GI50 (MOLT-4 leukemia) 52.9 µM | GI50 (HCC-2998 colon) > 100 µM | GI50 (T-47D breast) 49.2 µM
> 100 µM: TGI (MALME-3M melanoma) | TGI (SK-OV-3 ovarian) | TGI (SK-MEL-28 melanoma) | TGI (MDA-MB-435) | TGI (ACHN renal) | TGI (MOLT-4 leukemia) | TGI (HCC-2998 colon) | TGI (T-47D breast)

Cc1cc(=O)[nH]c(CNC(=O)c2cccc3ccccc23)n1
> 100 µM: TGI (MALME-3M melanoma) | TGI (SNB-75 CNS) | TGI (SK-OV-3 ovarian) | TGI (SK-MEL-28 melanoma) | TGI (ACHN renal) | TGI (SF-539 CNS) | TGI (MOLT-4 leukemia) | TGI (HCC-2998 colon)

C[CH2][Sn]1([CH2]C)[O]C2C(O)OC(CO)C(O)C2[O]1 (stereo not given)
40.5 µM: TGI (MOLT-4 leukemia)
inactive: GI50 (MALME-3M melanoma) 14 µM | GI50 (SNB-75 CNS) > 100 µM | GI50 (SK-OV-3 ovarian) > 100 µM | GI50 (SK-MEL-28 melanoma) 23.3 µM | GI50 (MDA-MB-435) 52.6 µM | GI50 (ACHN renal) 40.3 µM | GI50 (SF-539 CNS) 17.3 µM | GI50 (MOLT-4 leukemia) 12.8 µM | GI50 (T-47D breast) 14.6 µM
32.5 µM: TGI (SF-539 CNS)
32.3 µM: TGI (T-47D breast)
80.4 µM: TGI (SK-MEL-28 melanoma)
30.2 µM: TGI (MALME-3M melanoma)
> 100 µM: TGI (SNB-75 CNS) | TGI (SK-OV-3 ovarian) | TGI (MDA-MB-435) | TGI (ACHN renal)

[Ce+3].[Cl-].[O-]/N=C(\c1ccccc1)c1ccccn1.[O-]/N=C(\c1ccccc1)c1ccccn1.[O-]/N=C(\c1ccccc1)c1ccccn1
66 µM: TGI (SNB-75 CNS)
91.9 µM: TGI (SF-539 CNS)
> 100 µM: TGI (MALME-3M melanoma) | TGI (SK-OV-3 ovarian) | TGI (SK-MEL-28 melanoma) | TGI (ACHN renal) | TGI (MOLT-4 leukemia) | TGI (HCC-2998 colon)
inactive: GI50 (MALME-3M melanoma) 69.8 µM | GI50 (SNB-75 CNS) 15.1 µM | GI50 (SK-OV-3 ovarian) 37.2 µM | GI50 (SK-MEL-28 melanoma) 37.9 µM | GI50 (ACHN renal) 48.9 µM | GI50 (SF-539 CNS) 31 µM | GI50 (MOLT-4 leukemia) 27.7 µM | GI50 (HCC-2998 colon) 35.3 µM

CC(/C=C/C=C/C=C/C=C/C=C/C(O)=C1/C(=O)C(CCC(=O)O)N(C)C1=O)=C\C(C)C(OC1CC(O)C(O)C(C)O1)C(C)C (stereo not given)
10.4 µM: TGI (ACHN renal)
6.3 µM: TGI (SF-539 CNS)
7.93 µM: TGI (MDA-MB-435)
8.4 µM: TGI (MALME-3M melanoma)
10.1 µM: TGI (SK-MEL-28 melanoma)
7.53 µM: TGI (HCC-2998 colon)
22.8 µM: TGI (SNB-75 CNS)
7.08 µM: TGI (MOLT-4 leukemia)

c1ccc2c(c1)nnn1c3cnccc3nc21
> 100 µM: TGI (MALME-3M melanoma) | TGI (SNB-75 CNS) | TGI (SK-OV-3 ovarian) | TGI (SK-MEL-28 melanoma) | TGI (ACHN renal) | TGI (HCC-2998 colon)
97.2 µM: TGI (SF-539 CNS)
54.9 µM: TGI (MOLT-4 leukemia)

Clc1ccc(N/N=C/c2ccccn2)nc1
> 100 µM: TGI (SK-OV-3 ovarian) | TGI (SK-MEL-28 melanoma) | TGI (MDA-MB-435) | TGI (ACHN renal) | TGI (HCC-2998 colon)
active: GI50 (ACHN renal) 0.379 µM | GI50 (SF-539 CNS) 0.329 µM | GI50 (MOLT-4 leukemia) 0.339 µM | GI50 (HCC-2998 colon) 0.422 µM | GI50 (T-47D breast) 0.349 µM
> 45.8 µM: TGI (SNB-75 CNS)
2.46 µM: TGI (SF-539 CNS)
> 63.5 µM: TGI (T-47D breast)
> 50.7 µM: TGI (MOLT-4 leukemia)
inactive: GI50 (SNB-75 CNS) 1.74 µM | GI50 (SK-OV-3 ovarian) 0.508 µM | GI50 (SK-MEL-28 melanoma) 0.598 µM | GI50 (MDA-MB-435) 0.56 µM
